Data set [1] has as its system C. albicans ATCC 90028. Description: Therapeutic efficacy in Galleria mellonella infected with C. albicans. Particulars: for efficacy in the antifungal activity: substances alone at MIC values and LCs, infected larvae. The format is in vivo.
Data set [2] concerns C33A cell line (uterine cervical carcinoma epithelium). Description: In vitro cytotoxicity (resazurin, 72 h). Particulars: Homo sapiens, C-33-A, 72 h. On the procedure: (§1) Cytotoxicity assays were performed on the C33A cell line (uterine cervical carcinoma epithelium) obtained from the ATCC (Manassas, VA, USA). 5 × 10^4 cells/well were added using RPMI medium with 10% fetal bovine serum into 96-well plates. Cells were incubated at 36.5 °C with 5% CO2 for 24 h to form a cell monolayer. 2-HC and 3′-HC were analyzed in range concentrations from 0.1–75 μg/mL. In combinations, 2-HC and 3′-HC were analyzed from 0.48–31.25 mg/L and 0.48–62.5 mg/L. Cells were exposed for 72 h, and after, cytotoxicity was assessed by adding 100 μL of resazurin (50 μM) and measured by a microplate reader at 570 nm–600 nm. A negative control with untreated cells (100% living cells) and a positive control (DMSO 40% to induce cell death) were also used. The results were evaluated in triplicate independent. […] Selective index (SI) was calculated using SI=IC50/MIC50 .

Data set [3] can be described thus: In vitro cytotoxicity (resazurin, 72 h). Particulars: human. The procedure: as §1
In general terms: Alamar Blue is a resazurin reagent that responds to reducing activity.

Data set [4] has as its system Candida tropicalis ATCC 750. The data set is described as follows: In vitro susceptibility, CLSI M27-A3 broth microdilution (MIC/MFC). The format is cell-based. As to conditions: for MFC / MIC50: ATCC750, C. tropicalis ATCC 750; for MIC: ATCC750, C. tropicalis ATCC 750, 37 °C 24 h. The procedure:
(§2) Susceptibility tests were performed according to the M27-A3 protocol proposed by the Clinical & Laboratory Standards Institute (CLSI) (2008). Briefly, 2-HC and 3′-HC were solubilized in dimethyl sulfoxide at 12.500 g/L and stored at −80 °C. […] The final concentration of 2-HC and 3′-HC in the RPMI medium was 0.24–125.0 mg/L. Dilutions of the compounds were performed in a 96-well microplate at a total volume of 100 μL/well. Fungal suspensions were prepared in 0.85% NaCl and were adjusted to a final concentration of 5 × 10^3 cells/mL. Then, 100 μL of the fungal suspension was added to all wells. Microplates were incubated at 37 °C for 24 h. […] Minimal inhibitory concentration (MIC) was considered the lowest concentration of the drug that inhibited the visible growth of yeast. […] Samples were processed in triplicate, and each experiment was carried out in triplicate.

In data set [5] the test system is Candida krusei ATCC 6258. The data set is described as above. Format: cell-based. As to conditions: Pichia kudriavzevii, ATCC6258; for MFC / MIC50: C. krusei ATCC 6258; for MIC: C. krusei ATCC 6258, 37 °C 24 h. The procedure: as §2
Data set [6] deals with Candida glabrata ATCC 90030. Described as above. As to conditions: Nakaseomyces glabratus, ATCC90030; for MFC: C. glabrata ATCC 90030; for MIC: C. glabrata ATCC 90030, 37 °C 24 h. The format is cell-based. The procedure: as §2
The subject of data set [7] is Candida albicans ATCC 90028. The data set is described as above. The format is cell-based. Particulars: for MFC / MIC50: ATCC90028, C. albicans ATCC 90028; for MIC: ATCC90028, C. albicans ATCC 90028, 37 °C 24 h. The procedure: as §2
For data set [8], the system named is Candida parapsilosis ATCC 22019. The description is as above. The format is cell-based. Particulars: Lodderomyces parapsilosis, ATCC22019; for MFC: C. parapsilosis ATCC 22019; for MIC: C. parapsilosis ATCC 22019, 37 °C 24 h. On the procedure:
as §2

The subject of data set [9] is Candida tropicalis ATCC 750. Description: Combinatorial antifungal activity (checkerboard). The format is cell-based. As to conditions: drug alone in checkerboard; for MIC80 (individual): C. tropicalis; for MIC80: Candida tropicalis, ATCC750, C. tropicalis, read-out: MIC80 (individual). From the text: (§3) Candida albicans ATCC 90028, Candida tropicalis ATCC 750, and Candida krusei ATCC 6258 were used. These species were selected for these assays because C. albicans is the most prevalent etiological agent in fungal infections caused by the genus Candida, and C. tropicalis is the most frequent non-albicans species. C. krusei was used to represent the species most resistant to azole drugs. Thus, 2-HC and 3′-HC were combined with FCZ and CTZ and associated with each other. Their combinatorial antifungal activity was determined through the checkerboard method using 96-well microplates, according to Bellio et al. (2021). […] Microplates were incubated at 37 °C for 24 h. […] The negative control was only the culture medium, and the positive control was composed of microorganisms and the culture medium. […] From this, it was calculated the fractional inhibitory concentration (FIC) and the fractional inhibitory concentration index (FICI) of each well of the interface as follows: […]

Data set [10] has as its system Candida krusei ATCC 6258. The data set is described as follows: Combinatorial antifungal activity (checkerboard). Format: cell-based. Particulars: Pichia kudriavzevii, ATCC6258; C. krusei, drug alone in checkerboard; read-out: MIC80 (individual).
Source text: as §3

Data set [11] concerns Candida albicans ATCC 90028. Description: Combinatorial antifungal activity (checkerboard). The format is cell-based. Particulars: ATCC90028, C. albicans, drug alone in checkerboard, read-out: MIC80 (individual).
Source text: as §3

The test system of data set [12] is C33A cell line. Particulars: in the concentration ranges tested in the combinations. On the procedure: as §1
Data set [13] concerns Mycobacterium tuberculosis and Paracoccidioides brasiliensis mixed biofilm. The arrangement: method as in PMID 34790584. As to conditions: cited from earlier work.
The test system of data set [14] is Paracoccidioides brasiliensis. More on the design: method as in PMID 34790584. Particulars: cited from earlier work.
For data set [15], the system named is Mycobacterium tuberculosis. More on the design: method as in PMID 34790584. Particulars: cited from earlier work.

A word on the IC50: it is the concentration that inhibits the measured activity by half. In general, viability refers to a read-out of living cells in per cent, often relative to untreated cells. In general, MFC refers to the lowest tested concentration that kills the fungus rather than only halting it. What is called MIC50 is an inhibitory concentration at the 50% level, which refers to growth in some studies and to a panel of isolates in others. Broadly, the MIC is the least concentration at which growth counts as inhibited. By MIC80 is commonly meant an inhibitory concentration at the 80% level, which refers to growth in some studies and to a panel of isolates in others.

In brackets after ≈: the same amount, converted by molar mass.

`O=C(/C=C/c1ccccc1O)c1ccccc1` [2-HC, 2-hydroxychalcone]: in data set [1], the “efficacy in the antifungal activity” value was “did not demonstrate efficacy”. Also, the IC50 in data set [2] was found to be 13 µg/mL. Besides, the viability at 72 h, 9.38 mg/L in data set [3] is > 80%. The MFC is > 125 µg/mL in [4]; 125 µg/mL (≈ 557 µM) in [5]; > 125 µg/mL in data set [6]; > 125 µg/mL in data set [7]; 15.6 µg/mL (≈ 69.6 µM) in data set [8]. Besides, the MIC50 was 7.81 µg/mL (≈ 34.8 µM) in [4], 15.6 µg/mL (≈ 69.7 µM) in data set [5] and 15.6 µg/mL (≈ 69.7 µM) in data set [7]. Further, the MIC in data set [4] came out at 31.3 µg/mL (≈ 140 µM); in data set [5], 7.8 µg/mL (≈ 34.8 µM); in [6], 15.6 µg/mL (≈ 69.6 µM); in data set [7], 31.3 µg/mL (≈ 140 µM); in data set [8], 7.8 µg/mL (≈ 34.8 µM). For the same compound, in data set [9], the “MIC80 (individual)” value turned out to be 31.25 µg/mL. In addition, the results for the MIC80 in data set [9], in data set [10] and in data set [11] were 62.5 µg/mL, 31.2 µg/mL and 31.2 µg/mL, respectively.
As to `Clc1ccccc1C(c1ccccc1)(c1ccccc1)n1ccnc1` [CTZ, clotrimazole, reference compound], the MFC in [4] was > 4 µg/mL; in data set [5] it was > 4 µg/mL; in data set [6] it was > 2 µg/mL; in data set [7], > 4 µg/mL; in data set [8], 0.1 µg/mL (≈ 0.29 µM). In addition, the MIC in [4] came out at 0.01 µg/mL (≈ 0.029 µM); in data set [5], 0.06 µg/mL (≈ 0.174 µM); in data set [6] it was 0.004 µg/mL (≈ 0.0116 µM); in data set [7] it was 0.01 µg/mL (≈ 0.029 µM); in data set [8], 0.03 µg/mL (≈ 0.087 µM). Besides, in data set [12], the cytotoxicity result is reported as “did not present cytotoxicity”. The MIC80 came to 0.03 µg/mL in data set [9], 0.13 µg/mL in data set [10] and 0.03 µg/mL in data set [11].
Consider `OC(Cn1cncn1)(Cn1cncn1)c1ccc(F)cc1F` [FCZ, Fluconazole, reference compound], for which the “health indexes vs infection control group” value in data set [1] (larvae infected with C. albicans ATCC 90028, all doses, FCZ 350 mg/L) is recorded as “statistically different from the infection control group”. Besides, the “survival curves vs infection control group” value in [1] (larvae infected with C. albicans ATCC 90028, treated 1 h after infection, five days, FCZ 350 mg/L) was “statistically different from the infection control group”. The MFC in data set [4] is > 64 µg/mL; in [5] it was 128 µg/mL (≈ 418 µM); in data set [6], > 64 µg/mL; in [7], > 64 µg/mL; in data set [8] it was 2 µg/mL (≈ 6.53 µM). For the same compound, the MIC in data set [4] is 0.5 µg/mL (≈ 1.63 µM); in [5], 32 µg/mL (≈ 104 µM); in [6], 0.5 µg/mL (≈ 1.63 µM); in [7], 0.25 µg/mL (≈ 0.816 µM); in data set [8], 1 µg/mL (≈ 3.27 µM). In addition, the cytotoxicity result in [12] is on record as “did not present cytotoxicity”. For the same compound, the results for the MIC80 in [9], in [10] and in data set [11] were 0.5 µg/mL, 32 µg/mL and 0.5 µg/mL, respectively.
Take `O=C(/C=C/c1ccccc1)c1cccc(O)c1` [3′-HC, 3′-hydroxychalcone]: the biofilm degradation result in [13] is “above 50%”. Further, the “efficacy in the antifungal activity” value in [1] is “did not demonstrate efficacy”. Moreover, the MIC was 0.97 µg/mL (≈ 4.33 µM) in data set [14]; 31.3 µg/mL (≈ 140 µM) in data set [4]; 7.8 µg/mL (≈ 34.8 µM) in data set [5]; 7.8 µg/mL (≈ 34.8 µM) in data set [6]; 31.3 µg/mL (≈ 140 µM) in [7]; 15.6 µg/mL (≈ 69.6 µM) in data set [8]. In addition, the MIC in data set [15] is 7.8 µg/mL (≈ 34.8 µM). Besides, the IC50 in data set [2] stood at 11.9 µg/mL. In addition, the viability at 72 h, 9.38 mg/L in [3] was > 80%. In addition, the MFC in data set [4] was 125 µg/mL (≈ 557 µM); in data set [5], 31.3 µg/mL (≈ 140 µM); in [6] it was 31.3 µg/mL (≈ 140 µM); in [7], > 125 µg/mL; in [8], 31.3 µg/mL (≈ 140 µM). Besides, the MIC50 turned out to be 7.81 µg/mL (≈ 34.8 µM) in data set [4], 7.81 µg/mL (≈ 34.8 µM) in data set [5] and 15.6 µg/mL (≈ 69.7 µM) in data set [7]. Besides, in data set [9], the “MIC80 (individual)” value worked out at 31.25 µg/mL. The MIC80 stood at 62.5 µg/mL in data set [9], 15.6 µg/mL in data set [10] and 31.2 µg/mL in data set [11].
For the compound `C[C@@H]1[C@H](O)[C@@H](C)/C=C/C=C/C=C/C=C/C=C/C=C/C=C/[C@H](O[C@@H]2O[C@H](C)[C@@H](O)[C@H](N)[C@@H]2O)C[C@@H]2O[C@](O)(C[C@@H](O)C[C@@H](O)[C@H](O)CC[C@@H](O)C[C@@H](O)CC(=O)O[C@H]1C)C[C@H](O)[C@H]2C(=O)O` [AMB, amphotericin B, reference compound], the MFC in data set [4] was found to be 1 µg/mL (≈ 1.08 µM); in [5] it was 1 µg/mL (≈ 1.08 µM); in data set [6] it was 0.5 µg/mL (≈ 0.541 µM); in [7] it was 1 µg/mL (≈ 1.08 µM); in [8], 0.3 µg/mL (≈ 0.325 µM). For the same compound, the minimal inhibitory concentration (MIC) in data set [4] amounted to 0.05 µg/mL (≈ 0.0541 µM); in [5], 0.1 µg/mL (≈ 0.108 µM); in data set [6], 0.4 µg/mL (≈ 0.433 µM); in data set [7] it was 0.2 µg/mL (≈ 0.216 µM); in [8], 0.1 µg/mL (≈ 0.108 µM).

Source of the values: article PMC11279727, “Bioprospecting, Synergistic Antifungal and Toxicological Aspects of the Hydroxychalcones and Their Association with Azole Derivates against Candida spp. for Treating Vulvovaginal Candidiasis” (Pharmaceutics, 2024).
